From PMC6285983, “Novel broad spectrum virucidal molecules against enveloped viruses” (PLoS ONE, 2018)

How the values were obtained:
[1] = Cell viability MTS assay on Vero cells; conditions: African green monkey, CC50, Vero cells, MTS
HSV-2 = HSV-2 plaquing efficiency assay, compound preincubated with virus 1 h at 37°C; format: cell-based; conditions: Human alphaherpesvirus 2, HSV-2, Vero cells, 1 h pre-incubation virus/compound; for EC50: plaques at 24 h, read-out: EC50 (95% C.I.); for EC90: read-out: EC90 (95% C.I.)
in vitro = conditions: African green monkey
[2] = system: HSV-2 acyclovir resistant strain; assay: microbe, parasite or virus in culture; format: cell-based; conditions: Human alphaherpesvirus 2
[3] = In vitro lipoperoxidation test (TBA assay, MDA); conditions: 0.05% w/w added to liposomes, exposure to compound 9d

O=C(O)c1ccc(-c2ccc(/C=C3\SC(=S)N(CCc4c[nH]c5ccccc45)C3=O)o2)cc1O [Compound 9a, (Z)-4-(5-((3-(2-(1H-Indol-3-yl)ethyl)-4-oxo-2-thioxothiazolidin-5-ylidene)methyl)furan-2-yl)-2-hydroxybenzoic acid]
CC50 [1]: 291 µM
melting point: 254 °C (dec.)
EC50 (HSV-2): 0.63 µM
EC90 (HSV-2): 2.05 µM

O=C(O)c1ccc(-c2ccc(/C=C3\SC(=S)N(CCc4ccc(Br)cc4)C3=O)o2)cc1O [Compound 9b, (Z)-4-(5-((3-(4-bromophenethyl)-4-oxo-2-thio-oxothiazolidin-5-ylidene)methyl)furan-2-yl)-2-hydroxybenzoic acid]
CC50 [1]: 13.5 µM
melting point: 275 °C (dec.)
EC50 (HSV-2): 0.12 µM
EC90 (HSV-2): 0.404 µM

COc1ccc(CCN2C(=O)/C(=C/c3ccc(-c4ccc(C(=O)O)c(O)c4)o3)SC2=S)cc1 [Compound 9c, (Z)-2-hydroxy-4-(5-((3-(4-methoxyphenethyl)-4-oxo-2-thioxothiazolidin-5-ylidene)methyl)furan-2-yl)benzoic acid]
CC50 [1]: 9.87 µM
melting point: 265 °C (dec.)
EC50 (HSV-2): 0.06 µM
EC90 (HSV-2): 0.145 µM

O=C1/C(=C/c2ccc(-c3cc(C(F)(F)F)ccc3Cl)o2)SC(=S)N1Cc1ccc(F)cc1 [Compound 9e, (Z)-5-((5-(2-chloro-5-(trifluoromethyl)phenyl)furan-2-yl)methylene)-3-(4-fluorobenzyl)-2-thioxothiazolidin-4-one]
CC50 [1]: > 300 µM
EC50 (HSV-2): 0.767 µM
EC90 (HSV-2): 5.74 µM

O=C1NC(=S)N(Cc2ccccc2)C(=O)/C1=C\c1ccc(-c2ccc(C(=O)O)c(O)c2)o1 [Compound 15a, (Z)-4-(5-((1-benzyl-4,6-dioxo-2-thioxotetrahydropyrimidin-5(2H)-ylidene)methyl)furan-2-yl)-2-hydroxybenzoic acid]
CC50 (in vitro): > 300 µM
EC50 (HSV-2): 1.03 µM
EC90 (HSV-2): 57.1 µM

O=C1NC(=S)N(CCc2ccccc2)C(=O)/C1=C\c1ccc(-c2ccc(C(=O)O)c(O)c2)o1 [Compound 15b, (Z)-4-(5-((4,6-dioxo-1-phenethyl-2-thioxotetrahydropyrimidin-5(2H)-ylidene)methyl)furan-2-yl)-2-hydroxybenzoic acid]
CC50 (in vitro): > 300 µM
EC50 (HSV-2): 0.0484 µM
EC90 (HSV-2): 10.9 µM

Nc1nc2c(ncn2COCCO)c(=O)[nH]1 [acyclovir, reference compound]
EC50 [2]: 319 µM

(±)-α-tocopherol [reference compound]
reduction of the peroxidation of linoleic acid [3]: 50.5%
